In brackets after ≈: the same amount, converted by molar mass. Like-named read-outs stand apart in the source and are kept apart here.
How the values were obtained:
[1] = tested on: Clostridium sporogenes (ATCC 11437); assay: MIC and MBC by Macrodilution Broth Method; type: cell-based; details: ATCC11437, read-out: MIC concentration (ppm)
[2] = tested on: Staphylococcus aureus Mu50; assay: Lubbock biofilm model: relative ratio of bacterium by qPCR
[3] = tested on: Streptococcus pyogenes (ATCC 10096); assay: MIC and MBC by Macrodilution Broth Method; type: cell-based; details: ATCC10096, Streptococcus pyrogenes
[4] = tested on: Shigella dysenteriae (ATCC 12021); assay: MIC and MBC by Macrodilution Broth Method; type: cell-based
[5] = tested on: Pseudomonas aeruginosa PAO1; assay: Lubbock biofilm model: relative ratio of bacterium by qPCR
[6] = tested on: Enterobacter cloacae (ATCC 13047); assay: MIC and MBC by Macrodilution Broth Method; type: cell-based
[7] = Temperature and pH lability (GC-MS of ethanol eluate); type: physicochemical; details: high pH (above pH 7)
Description: As shown at a standard GC/MS injection temperature of 250° C., N-methyl N-nitroso isobutyramide is not detected as it most likely has broken down into other compounds. Therefore, this compound has never been previously identified.

[8] = tested on: Penicillium expansum; assay: Fungicidal activity, fumigation of Penicillium expansum spore plates in sealed 6 L containers; type: cell-based; details: Penicillium expansum, 24 h, 24 h exposure, further 48 h incubation, read-out: Amount for 100% inhibition (μg compound/L air)
Description: Experiments were conducted to determine the fungicidal activity of several compounds of the invention using Penicillium expansum as the test organism.
Plates of potato dextrose agar were streaked with a standard culture of Penicillium expansum spores (0.1 ml of a 2×10^5 cfu/ml) and placed in sealed plastic containers (nominal volume 6 liters). The containers (Rubbermaid) were fitted with a small fan (Radio Shack 12VDC) in the lids to ensure good distribution of the test compounds. The plates were exposed to different volumes (2.5 μl, 5 μl, 10 μl, 20 μl, 40 μl, 80 μl, or 120 μl) of standard solutions (1.0 to 4.0 mg/ml) of tested compounds in ethanol, under ambient conditions. After exposing for 24 h, the plates were removed and incubated for a further 48 h, at ambient temperature, and then monitored for growth of the test organism by visual observation.
The following tables provide summary results of three separate studies to determine the minimum amounts of the compounds needed to produce 100% inhibition of growth of the test organism. Results are expressed as minimal volumes (μl/6 L) and amounts (μg/L) required to produce 100% inhibition.

[9] = tested on: Klebsiella pneumoniae (ATCC 35657); assay: MIC and MBC by Macrodilution Broth Method; type: cell-based
[10] = tested on: Legionella pneumophila (ATCC 33152); assay: microbe, parasite or virus in culture; type: cell-based
[11] = tested on: Proteus mirabilis (ATCC 3559); assay: MIC and MBC by Macrodilution Broth Method; type: cell-based
[12] = tested on: Enterococcus faecalis V583; assay: Lubbock biofilm model: relative ratio of bacterium by qPCR
[13] = tested on: Listeria monocytogenes (ATCC 13932); assay: MIC and MBC by Macrodilution Broth Method; type: cell-based
[14] = tested on: Bacillus cereus (ATCC 10702); assay: MIC and MBC by Macrodilution Broth Method; type: cell-based
[15] = tested on: Pseudomonas aeruginosa PAO1, Enterococcus faecalis V583 and Staphylococcus aureus Mu50 biofilm; assay: Lubbock chronic wound biofilm model: biofilm formation and dry weight; details: biofilm at 24 hours
[16] = tested on: Corynebacterium renale (ATCC 10848); assay: MIC and MBC by Macrodilution Broth Method; type: cell-based; details: ATCC10848, Corynebacterum renale
[17] = tested on: E. coli 0157:H7 (ATCC 43894); assay: MIC and MBC by Macrodilution Broth Method; type: cell-based; details: ATCC43894, Escherichia coli 0157:H7
[18] = tested on: Methicillin Resistant Staphylococcus aureus (MRSA) (ATCC 33591); assay: MIC and MBC by Macrodilution Broth Method; type: cell-based
[19] = tested on: Staphylococcus aureus (MRSA) (ATCC 33591); assay: MIC and MBC of Compound 1 and analogs, macrodilution
[20] = 37° C., 16 to 20 hours, read-out: MIC concentration (ppm)
[21] = read-out: MBC concentration (ppm)

## CC(C)C(=O)N(C)N=O [Compound 1, N-methyl N-nitrosoisobutyramide]
[1]
  MIC: 25 µg/mL (≈ 192 µM)
[2]; dilution 1:10, 24 hours
  S. aureus relative ratio in biofilm: 0.27% ± 0.0%
[2]; dilution 1:100, 24 hours
  S. aureus relative ratio in biofilm: 13.9% ± 0.2%
[2]; dilution 1:1000, 24 hours
  S. aureus relative ratio in biofilm: 15.2% ± 1.6%
[2]; dilution 1:10000, 24 hours
  S. aureus relative ratio in biofilm: 47.2% ± 1.2%
[3]; [20]
  MIC: 6.25 µg/mL (≈ 48 µM)
[3]; [21]
  MBC: 6.25 µg/mL (≈ 48 µM)
[4]; ATCC12021, read-out: MBC concentration (ppm)
  MBC: 12.5 µg/mL (≈ 96 µM)
[4]; ATCC12021, read-out: MIC concentration (ppm)
  MIC: 6.25 µg/mL (≈ 48 µM)
[5]; dilution 1:10, 24 hours
  P. aeruginosa relative ratio in biofilm: 34.3% ± 1.2%
[5]; dilution 1:100, 24 hours
  P. aeruginosa relative ratio in biofilm: 46.7% ± 8.0%
[5]; dilution 1:1000, 24 hours
  P. aeruginosa relative ratio in biofilm: 50.5% ± 8.4%
[5]; dilution 1:10000, 24 hours
  P. aeruginosa relative ratio in biofilm: 20.3% ± 0.9%
[6]; ATCC13047, 37° C., 16 to 20 hours, read-out: MIC concentration (ppm)
  MIC: 12.5 µg/mL (≈ 96 µM)
[6]; ATCC13047, read-out: MBC concentration (ppm)
  MBC: 12.5 µg/mL (≈ 96 µM)
[7]
  stability to pH: unstable
[8]; Experiment #1
  MIC: 4.5 ng/mL (≈ 0.0346 µM)
[8]; Experiment #2
  MIC: 4.3 ng/mL (≈ 0.033 µM)
[8]; Experiment #3
  MIC: 4 ng/mL (≈ 0.0307 µM)
[8]; Experiment #4
  MIC: 8.4 ng/mL (≈ 0.0645 µM)
[9]; ATCC35657, 37° C., 16 to 20 hours, read-out: MIC concentration (ppm)
  MIC: 12.5 µg/mL (≈ 96 µM)
[9]; ATCC35657, read-out: MBC concentration (ppm)
  MBC: 12.5 µg/mL (≈ 96 µM)
[10]; ATCC33152, read-out: MBC concentration (ppm)
  MBC: 25 µg/mL (≈ 192 µM)
[10]; ATCC33152, read-out: MIC concentration (ppm)
  MIC: 6.25 µg/mL (≈ 48 µM)
[11]; ATCC3559, 37° C., 16 to 20 hours, read-out: MIC concentration (ppm)
  MIC: 6.25 µg/mL (≈ 48 µM)
[11]; ATCC3559, read-out: MBC concentration (ppm)
  MBC: 12.5 µg/mL (≈ 96 µM)
[12]; dilution 1:10, 24 hours
  E. faecalis relative ratio in biofilm: 65.5% ± 0.6%
[12]; dilution 1:100, 24 hours
  E. faecalis relative ratio in biofilm: 39.5% ± 1.0%
[12]; dilution 1:1000, 24 hours
  E. faecalis relative ratio in biofilm: 34.4% ± 0.2%
[12]; dilution 1:10000, 24 hours
  E. faecalis relative ratio in biofilm: 32.6% ± 0.3%
[13]; ATCC13932, 37° C., 16 to 20 hours, read-out: MIC concentration (ppm)
  MIC: 3.13 µg/mL (≈ 24 µM)
[13]; ATCC13932, read-out: MBC concentration (ppm)
  MBC: 12.5 µg/mL (≈ 96 µM)
[14]; ATCC10702, 37° C., 16 to 20 hours, read-out: MIC concentration (ppm)
  MIC: 6.25 µg/mL (≈ 48 µM)
[14]; ATCC10702, read-out: MBC concentration (ppm)
  MBC: 12.5 µg/mL (≈ 96 µM)
[15]; dilution 1:10
  dry weight mg ± SD: 21.7 ± 3.2 mg
[15]; dilution 1:100
  dry weight mg ± SD: 59 ± 4.4 mg
[15]; dilution 1:1000
  dry weight mg ± SD: 63 ± 5.3 mg
[15]; dilution 1:10000
  dry weight mg ± SD: 79.7 ± 5.5 mg
[16]; [20]
  MIC: 6.25 µg/mL (≈ 48 µM)
[16]; [21]
  MBC: 12.5 µg/mL (≈ 96 µM)
[17]; [20]
  MIC: 12.5 µg/mL (≈ 96 µM)
[17]; [21]
  MBC: 12.5 µg/mL (≈ 96 µM)
[18]; [21]
  MBC: 12.5 µg/mL (≈ 96 µM)
[18]; read-out: MIC concentration (ppm)
  MIC: 6.25 µg/mL (≈ 48 µM)
[19]; 19 h
  MIC: 6.25 µg/mL
[19]; 25 h
  MBC: 12.5 µg/mL

— patent US8728442B2, “Method of controlling the growth of microorganisms by a composition containing isolated or in vitro synthesized nitrosoamides” (Bayer CropScience LP, priority 2009, dated 2014)
